One series has as its system SW480 cells. Description: Western blot of Wnt/β-catenin pathway proteins in SW480 cells. The format is cell-based, human. The following applies: 10 μmol/L, 24 h. As for the experimental part:
(§1) SW480, DLD-1 (Wnt-dependent) or RKO (Wnt-independent) cells were plated in 6-well plates and incubated overnight. Cells were treated with E7449, olaparib or XAV939 and incubated for various time periods prior to processing by SDS PAGE and western blot analysis. […] Following binding of appropriate secondary antibodies labeled with IRDye® (LI-COR), image analysis was performed with Image Studio software for the LI-COR Odyssey system (version 2.1.10).

Series [1] concerns DLD-1 cells. The experiment in a line: Gene expression profiling of Wnt-related genes (TLDA qPCR) in DLD-1 cells. The format is cell-based, human. As to conditions: 30 μmol/L, 72 h. As to the method:
Gene expression profiling was performed using a custom designed TaqMan® low density array (TLDA). Total RNA was isolated from cell lines using RNeasy Mini Kit (Qiagen) and from xenograft tumor FFPE tissue using RecoverAll Total Nucleic Acid Isolation (Ambion). Human and mouse, real-time qPCR TLDAs (384-well micro fluidic card) were designed with genes selected based on their involvement in Wnt signalling (see supplementary Tables 2 and 3 for lists of genes on TLDAs). cDNA was generated from total RNA using High Capacity cDNA Reverse Transcription kit (Life Technologies) or SuperScript® VILO™ Master Mix (Life Technologies). 100 ng cDNA was combined with TaqMan® Gene Expression Master Mix (Life Technologies) for the cell lines and TaqMan® Advanced FAST Master Mix (Life Technologies) for the xenograft tissue for each port (in duplicate). TLDAs were run based on recommended cycling times for each master mix. Ct values were calculated and imported into GeneData Analyst for further analysis. To calculate the ΔCts, gene expression was normalized to several housekeeping genes. Relative fold change was calculated by comparison to the DMSO or vehicle-treated controls for each sample. A student's t-test was used to calculate P-values and hierarchical clustering used Manhattan distance and complete linkage plotting of selected significant genes to generate heat maps.
A general note: Quantitative PCR measures a nucleic acid by following its amplification.

Another series addresses TNKS1/2. The experiment in a line: TNKS1/2 inhibition, summary over the enzyme assays. The format is biochemical, human. The following applies: range over the assays used. As to the method: (§2) Samples were analyzed via phosphorimaging.
A further series concerns wild type DT40 cells. The experiment in a line: cells. The following applies: DT40, 48 h, read-out: IC50, cell proliferation, wild type DT40 cells.
For series [2], the system named is Wnt1 (int-1) mammary tumors. Description: Wnt1 subcutaneous mammary tumor model. As to the method: All studies were performed according to IACUC approved protocols. The general health of mice was monitored daily. Tumor volume was determined by caliper measurements (mm), using the formula (l x w^2)/2 = mm^3, where l and w refer to the larger and smaller perpendicular dimensions collected at each measurement. Tumor dimensions were recorded twice per week starting when tumors reached an approximate size of 100 to 150 mm^3. Body weights were recorded twice per week and relative body weight was calculated as follows: Relative body weight = (body weight on day of measurement/body weight on first day of treatment).
Tumor pieces cut to approximately 2 mm^3 in size were injected subcutaneously in female nude mice. Treatment was initiated approximately 9–10 days post-implantation of mice.

The next series concerns PARP3 or PARPs 6–16. The experiment in a line: 32P-NAD+ auto-PARylation selectivity screen. The format is biochemical, human. As to conditions: 32P-NAD+ auto-PARylation screen. As to the method: as §2
Series [3] deals with Wnt-mediated hair re-growth. Description: Re-growth of hair after depilation in C57BL/6 mice. In kind it is in vivo, mouse. The following applies: 30, 100 or 300 mg/kg oral once daily for 12 days. An excerpt:
Re-growth of hair was monitored and recorded by photography.

For series [4], the system named is DLD-1 cells. Description: Western blot of Wnt/β-catenin pathway proteins in DLD-1 cells. The format is cell-based, human. The following applies: 24 h. As for the experimental part:
as §1
In general terms: In western blotting, separated proteins are transferred to a membrane and probed.

Entries after “also recorded” stand apart in the source; their conditions may differ.

Description for wild type DT40 cells: Proliferation assays were performed in a panel of 32 isogenic DT40 cell lines, in which each line was deficient in a distinct DNA repair gene [31]. Cells were seeded and incubated with test compound at various concentrations for 2–3 days (~ 8 cell cycles). […] Each experiment was conducted in duplicate and a minimum of 3 separate experiments were performed. […] For proliferation assays cells were plated at low density in 96 well plates. […] Cell growth was assessed using the CellTiter-Glo® cell viability assay (Promega, Cat# G7573). Each experiment was conducted in duplicate and a minimum of 3 separate experiments were performed.

Consider `O=c1[nH]nc2c3c(cccc13)N=C(CN1Cc3ccccc3C1)N2` [E7449, 8-(isoindolin-2-ylmethyl)-2,9-dihydro-3H-pyridazino[3,4,5-de]quinazolin-3-one], for which, in the series on SW480 cells, the “Cyclin D1 protein levels” value is listed as “modest decrease”, the axin2 protein level entry is given as “significant increase”, the “reduction of active (non-phosphorylated) β-catenin level” value is on record as ~ 70% and the “reduction of total β-catenin level” value was around 50%. The “number of Wnt-related genes with significantly altered expression” value in the series on DLD-1 cells [1] came to 40 genes. The same compound had an IC50 on TNKS1/2 of 50 to 120 nM. In addition, the IC50 in the series on wild type DT40 cells came to 3200 nM. In addition, the “effect of adding E7449 to E6201 on body weight loss” value in series [2] (E7449 100 mg/kg + E6201 40 mg/kg) was “did not impact body weight loss”. Besides, the “tumor growth, single agent” value in series [2] (E7449 100 mg/kg once daily, Wnt-C59 10 mg/kg once daily, E6201 40 mg/kg i.v. Q4Dx3) was “did not inhibit tumor growth; also recorded: No antitumor effect”. In series [2] (E7449 100 mg/kg oral once daily + E6201 40 mg/kg i.v. Q4Dx3), the “antitumor activity, combination of E7449 and E6201” value was “Antitumor activity was enhanced; also recorded: synergistic inhibition of tumor growth”. The “tolerability (body weight loss), single agent” value in series [2] (E7449 100 mg/kg, Wnt-C59 10 mg/kg once daily) is on record as “well tolerated with minimal toxicity”. The “inhibitory activity on PARP3 or PARPs 6–16” value with PARP3 or PARPs 6–16 was “Significant inhibitory activity was not observed”. Moreover, the hair re-growth entry in series [3] was “significantly delayed”. Besides, the “effect on levels of β-catenin” value in the series with DLD-1 cells [4] is on record as “robust effect on levels of β-catenin was not observed”.

The values are drawn from article PMC4747407 (Oncotarget, 2015).
